Measured values published in the NIST ThermoML archive (doi:10.1016/j.tca.2010.09.004).
± gives the expanded uncertainty stated by the source.

Assay: xn = mol fraction of the nth substance listed
Conditions: 101 kPa, Liquid; for speed of sound: Sing-around technique in a fixed-path interferometer; for mass density: Vibrating tube method

CCCNCCC [dipropylamine] + CCC(C)=O
Conditions	mass density [kg/m3]	speed of sound [m/s]
293.15 K, x2 = 0.0539	740.359 ± 0.31	1208 ± 1.3
293.15 K, x2 = 0.1021	742.443 ± 0.3	1207.3 ± 1.3
293.15 K, x2 = 0.1497	744.612 ± 0.29	1206.7 ± 1.3
293.15 K, x2 = 0.1982	746.936 ± 0.29	1206.2 ± 1.3
293.15 K, x2 = 0.2459	749.311 ± 0.28	1205.7 ± 1.3
293.15 K, x2 = 0.2983	752.034 ± 0.27	1205.2 ± 1.2
293.15 K, x2 = 0.3504	754.874 ± 0.27	1204.9 ± 1.2
293.15 K, x2 = 0.4012	757.757 ± 0.26	1204.6 ± 1.2
293.15 K, x2 = 0.4495	760.619 ± 0.25	1204.3 ± 1.2
293.15 K, x2 = 0.5068	764.2 ± 0.25	1204.3 ± 1.2
293.15 K, x2 = 0.5551	767.388 ± 0.24	1204.4 ± 1.2
293.15 K, x2 = 0.6014	770.563 ± 0.23	1204.5 ± 1.1
293.15 K, x2 = 0.6568	774.567 ± 0.23	1204.8 ± 1.1
293.15 K, x2 = 0.6968	777.603 ± 0.22	1205.1 ± 1.1
293.15 K, x2 = 0.7555	782.275 ± 0.21	1205.9 ± 1.1
293.15 K, x2 = 0.8009	786.111 ± 0.21	1206.6 ± 1.1
293.15 K, x2 = 0.8573	791.158 ± 0.2	1207.8 ± 1.1
293.15 K, x2 = 0.901	795.276 ± 0.2	1208.9 ± 1.1
293.15 K, x2 = 0.9479	799.908 ± 0.19	1210.3 ± 1.1
298.15 K, x2 = 0.0592	736.042 ± 0.31	1186.6 ± 1.3
298.15 K, x2 = 0.1027	737.924 ± 0.3	1185.9 ± 1.3
298.15 K, x2 = 0.1509	740.108 ± 0.29	1185.2 ± 1.3
298.15 K, x2 = 0.2001	742.441 ± 0.29	1184.7 ± 1.3
298.15 K, x2 = 0.2446	744.623 ± 0.28	1184.2 ± 1.2
298.15 K, x2 = 0.2958	747.263 ± 0.27	1183.8 ± 1.2
298.15 K, x2 = 0.3545	750.41 ± 0.27	1183.3 ± 1.2
298.15 K, x2 = 0.4003	753 ± 0.26	1183.2 ± 1.2
298.15 K, x2 = 0.4625	756.591 ± 0.25	1182.5 ± 1.2
298.15 K, x2 = 0.5006	759.04 ± 0.25	1182.9 ± 1.2
298.15 K, x2 = 0.5539	762.376 ± 0.24	1182.7 ± 1.1
298.15 K, x2 = 0.5992	765.587 ± 0.24	1183.2 ± 1.1
298.15 K, x2 = 0.6474	769.011 ± 0.23	1183.4 ± 1.1
298.15 K, x2 = 0.6987	772.61 ± 0.23	1183.5 ± 1.1
298.15 K, x2 = 0.7531	777.151 ± 0.22	1184.6 ± 1.1
298.15 K, x2 = 0.8048	781.469 ± 0.21	1185.4 ± 1.1
298.15 K, x2 = 0.8557	785.991 ± 0.2	1186.6 ± 1.1
298.15 K, x2 = 0.9041	790.463 ± 0.2	1188 ± 1.1
298.15 K, x2 = 0.9471	794.714 ± 0.19	1189.1 ± 1
303.15 K, x2 = 0.0658	731.678 ± 0.31	1165.9 ± 1.3
303.15 K, x2 = 0.0988	733.107 ± 0.3	1165.4 ± 1.3
303.15 K, x2 = 0.1106	733.626 ± 0.3	1165.2 ± 1.3
303.15 K, x2 = 0.2146	738.432 ± 0.29	1164.1 ± 1.3
303.15 K, x2 = 0.2595	740.626 ± 0.28	1163.5 ± 1.2
303.15 K, x2 = 0.3098	743.197 ± 0.27	1163.1 ± 1.2
303.15 K, x2 = 0.363	746.053 ± 0.27	1162.8 ± 1.2
303.15 K, x2 = 0.4131	748.859 ± 0.26	1162.5 ± 1.2
303.15 K, x2 = 0.457	751.472 ± 0.26	1162.4 ± 1.2
303.15 K, x2 = 0.5154	755.069 ± 0.25	1162.3 ± 1.1
303.15 K, x2 = 0.5554	757.601 ± 0.24	1162.4 ± 1.1
303.15 K, x2 = 0.6081	761.161 ± 0.24	1162.6 ± 1.1
303.15 K, x2 = 0.6657	765.248 ± 0.23	1163 ± 1.1
303.15 K, x2 = 0.7041	768.129 ± 0.23	1163.5 ± 1.1
303.15 K, x2 = 0.7517	771.855 ± 0.22	1164 ± 1.1
303.15 K, x2 = 0.8032	776.094 ± 0.21	1164.8 ± 1.1
303.15 K, x2 = 0.8513	780.312 ± 0.21	1166.1 ± 1.1
303.15 K, x2 = 0.8958	784.355 ± 0.2	1167 ± 1
303.15 K, x2 = 0.9448	789.085 ± 0.2	1168.6 ± 1

CCN(CC)CC [triethylamine] + CCC(C)=O
Conditions	mass density [kg/m3]	speed of sound [m/s]
293.15 K, x2 = 0.0684	730.666 ± 0.21	1134.5 ± 1
293.15 K, x2 = 0.1169	733.08 ± 0.21	1136 ± 1
293.15 K, x2 = 0.1627	735.417 ± 0.21	1138 ± 1
293.15 K, x2 = 0.2218	738.705 ± 0.21	1140.6 ± 1
293.15 K, x2 = 0.2686	741.43 ± 0.21	1143 ± 1
293.15 K, x2 = 0.3141	744.214 ± 0.21	1145.5 ± 1
293.15 K, x2 = 0.3549	746.818 ± 0.21	1147.9 ± 1
293.15 K, x2 = 0.4154	750.867 ± 0.21	1151.7 ± 1
293.15 K, x2 = 0.4636	754.264 ± 0.21	1155 ± 1
293.15 K, x2 = 0.5054	757.343 ± 0.21	1158.2 ± 1
293.15 K, x2 = 0.5572	761.332 ± 0.2	1162.3 ± 1
293.15 K, x2 = 0.61	765.576 ± 0.2	1166.7 ± 1
293.15 K, x2 = 0.6519	769.122 ± 0.2	1170.6 ± 1
293.15 K, x2 = 0.7051	773.808 ± 0.2	1175.7 ± 1
293.15 K, x2 = 0.7603	778.962 ± 0.2	1181.4 ± 1
293.15 K, x2 = 0.8057	783.447 ± 0.2	1186.5 ± 1
293.15 K, x2 = 0.8586	788.929 ± 0.19	1192.8 ± 1
293.15 K, x2 = 0.9019	793.679 ± 0.19	1198.3 ± 1
293.15 K, x2 = 0.9451	798.586 ± 0.19	1204.1 ± 1
298.15 K, x2 = 0.0709	725.999 ± 0.22	1112.7 ± 1
298.15 K, x2 = 0.1149	728.152 ± 0.21	1114.2 ± 1
298.15 K, x2 = 0.158	730.378 ± 0.21	1115.9 ± 1
298.15 K, x2 = 0.2181	733.668 ± 0.21	1118.5 ± 1
298.15 K, x2 = 0.261	736.151 ± 0.21	1120.7 ± 1
298.15 K, x2 = 0.3203	739.738 ± 0.21	1123.9 ± 1
298.15 K, x2 = 0.3605	742.292 ± 0.21	1126.3 ± 1
298.15 K, x2 = 0.4159	745.987 ± 0.21	1129.9 ± 1
298.15 K, x2 = 0.4607	749.113 ± 0.21	1133 ± 1
298.15 K, x2 = 0.5106	752.756 ± 0.21	1136.7 ± 1
298.15 K, x2 = 0.5701	757.323 ± 0.21	1141.5 ± 1
298.15 K, x2 = 0.6039	760.048 ± 0.2	1144.5 ± 1
298.15 K, x2 = 0.66	764.735 ± 0.2	1149.5 ± 1
298.15 K, x2 = 0.7122	769.362 ± 0.2	1154.6 ± 1
298.15 K, x2 = 0.7604	773.883 ± 0.2	1159.8 ± 1
298.15 K, x2 = 0.8023	777.983 ± 0.2	1164.4 ± 1
298.15 K, x2 = 0.8437	782.252 ± 0.2	1169.6 ± 1
298.15 K, x2 = 0.8921	787.444 ± 0.19	1175.7 ± 1
298.15 K, x2 = 0.9456	793.453 ± 0.19	1182.8 ± 1
303.15 K, x2 = 0.0686	721.221 ± 0.22	1092.2 ± 0.99
303.15 K, x2 = 0.1149	723.47 ± 0.22	1093.7 ± 0.99
303.15 K, x2 = 0.1643	726.011 ± 0.22	1095.6 ± 0.99
303.15 K, x2 = 0.2101	728.487 ± 0.21	1097.6 ± 0.99
303.15 K, x2 = 0.2639	731.565 ± 0.21	1100.3 ± 0.99
303.15 K, x2 = 0.3102	734.326 ± 0.21	1102.7 ± 0.99
303.15 K, x2 = 0.3502	736.816 ± 0.21	1105.1 ± 0.99
303.15 K, x2 = 0.3869	739.189 ± 0.21	1107.4 ± 0.99
303.15 K, x2 = 0.45	743.482 ± 0.21	1111.7 ± 0.99
303.15 K, x2 = 0.5081	747.667 ± 0.21	1116 ± 1
303.15 K, x2 = 0.5652	752.023 ± 0.21	1120.6 ± 1
303.15 K, x2 = 0.6051	755.192 ± 0.21	1124 ± 1
303.15 K, x2 = 0.6561	759.446 ± 0.2	1128.7 ± 1
303.15 K, x2 = 0.7087	764.061 ± 0.2	1134 ± 1
303.15 K, x2 = 0.763	769.188 ± 0.2	1140 ± 1
303.15 K, x2 = 0.7945	772.2 ± 0.2	1143.5 ± 1
303.15 K, x2 = 0.8542	778.238 ± 0.2	1150.5 ± 1
303.15 K, x2 = 0.8987	783.012 ± 0.19	1156.3 ± 1
303.15 K, x2 = 0.95	788.818 ± 0.19	1163.4 ± 1
